Data as given in patent US8093406B2, “Cyclic sulfones with aminobenzyl substitution useful as BACE inhibitors” (Novartis AG, priority 2008, dated 2012).
Structures can show the parent of a compound that is named as a salt.

target: T1, Human BACE (Homo sapiens, UniProt P56817); experiment: Test 1: Inhibition of Human BACE; type: biochemical; conditions: Test 1; recombinant BACE extracellular domain, acetate buffer pH 4.5, 1 hour incubation at room temperature, fluorescence-quenched APP-derived peptide substrate; read-out: Bace IC50
T1 construct: Recombinant BACE (extracellular domain, expressed in baculovirus and purified using standard methods); made in house
Description: Test 1: Inhibition of Human BACE
Recombinant BACE (extracellular domain, expressed in baculovirus and purified using standard methods) at 0.1 to 10 nM concentrations is incubated with the test compound at various concentrations for 1 hour at room temperature in 10 to 100 mM acetate buffer, pH 4.5, containing 0.1% CHAPS. […] IC50 values are calculated from percentage of inhibition of BACE-activity as a function of the test compound concentration.

T1 sequence (P56817 46-457 limits assumed): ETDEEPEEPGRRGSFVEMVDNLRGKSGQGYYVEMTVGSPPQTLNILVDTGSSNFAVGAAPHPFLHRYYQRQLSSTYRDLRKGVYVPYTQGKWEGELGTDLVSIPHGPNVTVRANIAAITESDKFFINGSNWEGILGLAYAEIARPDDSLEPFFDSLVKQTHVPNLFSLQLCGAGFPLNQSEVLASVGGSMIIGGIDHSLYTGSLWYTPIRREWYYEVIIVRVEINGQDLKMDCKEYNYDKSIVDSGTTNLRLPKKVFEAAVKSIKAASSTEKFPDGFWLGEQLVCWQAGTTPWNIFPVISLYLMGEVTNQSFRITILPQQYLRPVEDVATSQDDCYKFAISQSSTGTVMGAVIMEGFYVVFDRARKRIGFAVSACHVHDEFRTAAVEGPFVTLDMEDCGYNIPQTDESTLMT

| IC50 | SMILES |
| --- | --- |
| 8400 nM | CN(C)CCNc1ccc(C[C@@H]2CS(=O)(=O)C[C@H](NCc3cccc(C(C)(C)C)c3)[C@H]2O)cc1F (racemic) [Example 7, (3R*,4S*,5S*)-3-(3-tert-Butyl-benzylamino)-5-[4A2-dimethylamino-ethyl-amino)-3-fluoro-benzyl]-1,1-dioxo-hexahydro-1lambda*6*-thiopyran-4-ol] |
| 38 nM | CCCCNC(=O)c1cc(C[C@@H]2CS(=O)(=O)C[C@H](NCc3cccc(C(C)(C)C)c3)[C@H]2O)ccc1N (racemic) [Example 18, 2-Amino-N-butyl-5-[3S*,4S*,5R*)-5-(3-tert-butyl-benzylamino)-4-hydroxy-1,1-dioxo-hexahydro-1lambda*6*-thiopyran-3-ylmethyl]-benzamide] |
| 1140 nM | CCNCc1cc(C[C@@H]2CS(=O)(=O)C[C@H](NCc3cccc(C(C)(C)C)c3)[C@H]2O)cc(F)c1N (relative stereo) [Example 3, (3S*,4S*,5R*)-3-(4-Amino-3-ethylaminomethyl-5-fluoro-benzyl)-5-(3-tert-butyl-benzylamino)-1,1-dioxo-hexahydro-1lambda*6*-thiopyran-4-ol hydrochloride] |
| 326 nM | CC(C)(C)c1cccc(CN[C@H]2CS(=O)(=O)C[C@@H](Cc3cc(F)c(N)c(N4CCCC4=O)c3)[C@@H]2O)c1 (relative stereo) [Example 4, 1-{2-Amino-5-[(3S*,4S*,5R*)-5-(3-tert-butyl-benzylamino)-4-hydroxy-1,1-dioxo-hexahydro-1lambda*6*-thiopyran-3-ylmethyl]-3-fluoro-phenyl}-pyrrolidin-2-one di-trifluoroacetate] |
| 4700 nM | CC(C)(C)c1cccc(CN[C@H]2CS(=O)(=O)C[C@@H](Cc3cc(F)c(N)c(N4CCC4=O)c3)[C@@H]2O)c1 (relative stereo) [Example 5, 1 {2-Amino-5-[(3S*,4S*,5R*)-5-(3-tert-butyl-benzylamino)-4-hydroxy-1,1-dioxo-hexahydro-1lambda*6*-thiopyran-3-ylmethyl]-3-fluoro-phenyl}-azetidin-2-one] |
| 42 nM | CCNCC(=O)Nc1c(F)cc(C[C@@H]2CS(=O)(=O)C[C@H](NCc3cccc(C(C)(C)C)c3)[C@H]2O)cc1CC [Example 8, N-{4-[(3S,4S,5R)-5-(3-tert-Butyl-benzylamino)-4-hydroxy-1,1-dioxo-hexahydro-1lambda*6*-thiopyran-3-ylmethyl]-2-ethyl-6-fluoro-phenyl}-2-ethylamino-acetamide dihydrochloride] |
| 48 nM | CCc1cc(C[C@@H]2CS(=O)(=O)C[C@H](NCc3cccc(C(C)(C)C)c3)[C@H]2O)cc(F)c1NC(=O)COC [Example 10, N-{4-[(3S,4S,5R)-5-(3-tert-Butyl-benzylamino)-4-hydroxy-1,1-dioxo-hexa-hydro-1lambda*6*-thiopyran-3-ylmethyl]-2-ethyl-6-fluoro-phenyl}-2-methoxy-acetamide hydrochloride] |
| 74 nM | CN(C)CC(=O)Nc1c(F)cc(C[C@@H]2CS(=O)(=O)C[C@H](NCc3cccc(C(C)(C)C)c3)[C@H]2O)cc1Cl [Example 11, N-{4-[(3S,4S,5R)-5-(3-tert-Butyl-benzylamino)-4-hydroxy-1,1-dioxo-hexa-hydro-1lambda*6*-thiopyran-3-ylmethyl]-2-chloro-6-fluoro-phenyl}-2-dimethylamino-acetamide dihydrochloride] |
| 20 nM | CCNCC(=O)Nc1c(F)cc(C[C@@H]2CS(=O)(=O)C[C@H](NCc3cccc(C(C)(C)C)c3)[C@H]2O)cc1Cl [Example 12] |
| 28 nM | CNCC(=O)Nc1c(F)cc(C[C@@H]2CS(=O)(=O)C[C@H](NCc3cccc(C(C)(C)C)c3)[C@H]2O)cc1Cl [Example 13] |
| 22 nM | CC(C)(C)c1cccc(CN[C@H]2CS(=O)(=O)C[C@@H](Cc3cc(F)c(NC(=O)CNC4CC4)c(Cl)c3)[C@@H]2O)c1 [Example 14, N-{4-[(3S,4S,5R)-5-(3-tert-butyl-benzylamino)-4-hydroxy-1,1-dioxo-hexa-hydro-1lambda*6*-thiopyran-3-ylmethyl]-2-chloro-6-fluoro-phenyl}-2-cyclopropylamino-acetamide] |
| 50 nM | CC(C)(C)NCC(=O)Nc1c(F)cc(C[C@@H]2CS(=O)(=O)C[C@H](NCc3cccc(C(C)(C)C)c3)[C@H]2O)cc1Cl [Example 15] |
| 34 nM | CC(C)(C)c1cccc(CN[C@H]2CS(=O)(=O)C[C@@H](Cc3cc(F)c(NC(=O)CN4CCCCC4)c(Cl)c3)[C@@H]2O)c1 [Example 16] |
| 26 nM | CCNC(=O)c1cc(CC2CS(=O)(=O)CC(NCc3cccc(C(C)(C)C)c3)C2O)ccc1N (stereo not drawn) [Example 19] |
| 151 nM | CCCNC(=O)c1cc(CC2CS(=O)(=O)CC(NCc3cccc(C(C)(C)C)c3)C2O)ccc1N (stereo not drawn) [Example 20] |
| 8 nM | CC(C)(C)c1cccc(CNC2CS(=O)(=O)CC(Cc3ccc(N)c(C(=O)NCC4CC4)c3)C2O)c1 (stereo not drawn) [Example 21] |
| 46 nM | CC(C)(C)c1cccc(CNC2CS(=O)(=O)CC(Cc3ccc(N)c(C(=O)NCCF)c3)C2O)c1 (stereo not drawn) [Example 22] |
| 175 nM | CC(C)(C)c1cccc(CNC2CS(=O)(=O)CC(Cc3ccc(N)c(C(=O)NCC(F)(F)F)c3)C2O)c1 (stereo not drawn) [Example 23] |
| 7 nM | CN(C)CC(=O)Nc1c(F)cc(C[C@@H]2CS(=O)(=O)C[C@H](NCc3cccc(C(C)(C)C)c3)[C@H]2O)cc1OCC(F)(F)F [Example 26, N-[4-[(3S,4S,5R)-5-(3-tert-Butyl-benzylamino)-4-hydroxy-1,1-dioxo-hexahydro-1lambda*6*-thiopyran-3-ylmethyl]-2-fluoro-6-(2,2,2-trifluoro-ethoxy)-phenyl]-2-dimethylamino-acetamide dihydrochloride] |
| 3 nM | CCNCC(=O)Nc1c(F)cc(C[C@@H]2CS(=O)(=O)C[C@H](NCc3cccc(C(C)(C)C)c3)[C@H]2O)cc1OCC(F)(F)F [Example 27] |
| 7 nM | CC(C)(C)c1cccc(CN[C@H]2CS(=O)(=O)C[C@@H](Cc3cc(F)c(NC(=O)CN4CCC4)c(OCC(F)(F)F)c3)[C@@H]2O)c1 [Example 28] |
| 5 nM | CC(C)(C)c1cccc(CN[C@H]2CS(=O)(=O)C[C@@H](Cc3cc(F)c(NC(=O)CN4CCCCC4)c(OCC(F)(F)F)c3)[C@@H]2O)c1 [Example 29] |
| 22 nM | C[Si](C)(C)c1cccc(CN[C@H]2CS(=O)(=O)C[C@@H](Cc3cc(F)c(N)c(OC(C(F)(F)F)C(F)(F)F)c3)[C@@H]2O)c1 [Example 31, (3S,4S,5R)-3-[4-Amino-3-fluoro-5-(2,2,2-trifluoro-1-trifluoromethyl-ethoxy)-benzyl]-1,1-dioxo-5-(3-trimethylsilanyl-benzylamino)-hexahydro-1lambda*6*-thiopyran-4-ol] |
| 3 nM | CC(C)(C)c1cccc(CN[C@H]2CS(=O)(=O)C[C@@H](Cc3cc(F)c(N)c(O[C@H](CO)C(F)(F)F)c3)[C@@H]2O)c1 [Example 38, (3S,4S,5R)-3-[4-Amino-3-fluoro-5-((R)-2,2,2-trifluoro-1-hydroxymethyl-ethoxy)-benzyl]-5-(3-tert-butyl-benzylamino)-1,1-dioxo-hexahydro-1lambda*6*-thio-pyran-4-ol] |
| 71 nM | CC(C)(C)c1cccc(CN[C@H]2CS(=O)(=O)C[C@@H](Cc3cc(F)c(N)c(O[C@H](CN)C(F)(F)F)c3)[C@@H]2O)c1 [Example 39, (3S,4S,5R)-3-[4-Amino-3-((R)-1-aminomethyl-2,2,2-trifluoro-ethoxy)-5-fluoro-benzyl]-5-(3-tert-butyl-benzylamino)-1,1-dioxo-hexahydro-1lambda*6*-thiopyran-4-ol] |
| 247 nM | COC[C@@H](Oc1cc(C[C@@H]2CSC[C@H](NCc3cccc(C(C)(C)C)c3)[C@H]2O)cc(F)c1N)C(F)(F)F [Example 40, (3S,4S,5R)-3-[4-Amino-3-fluoro-5-((R)-2,2,2-trifluoro-1-methoxymethyl-ethoxy)-benzyl]-5-(3-tert-butyl-benzylamino)-tetrahydro-thiopyran-4-ol hydrochloride] |
| 10 nM | COC[C@@H](Oc1cc(C[C@@H]2C[S+]([O-])C[C@H](NCc3cccc(C4(C)CC4)c3)[C@H]2O)cc(F)c1N)C(F)(F)F (stereo partly drawn) [Example 43, (3S,4S,5R)-3-[4-Amino-3-fluoro-5-((R)-2,2,2-trifluoro-1-methoxymethyl-ethoxy)-benzyl]-5-[3-(1-methyl-cyclopropyl)-benzylamino]-1-oxo-hexahydro-1lambda*4*-thiopyran-4-ol hydrochloride] |
| 27 nM | COC[C@@H](Oc1cc(C[C@@H]2C[S@@+]([O-])C[C@H](NCc3cccc(C(C)(C)C(F)(F)F)c3)[C@H]2O)cc(F)c1N)C(F)(F)F [Example 44, (1R,3S,4S,5R)-3-[4-Amino-3-fluoro-5-((R)-2,2,2-trifluoro-1-methoxymethyl-ethoxy)-benzyl]-1-oxo-5-[3-(2,2,2-trifluoro-1,1-dimethyl-ethyl)-benzylamino]-tetrahydro-thiopyran-4-ol] |
| 26 nM | COC[C@@H](Oc1cc(C[C@@H]2C[S@@+]([O-])C[C@H](NCc3cc(OC)cc(C(C)C)c3)[C@H]2O)cc(F)c1N)C(F)(F)F [Example 48, (1R,3S,4S,5R)-3-[4-Amino-3-fluoro-5-((R)-2,2,2-trifluoro-1-methoxymethyl-ethoxy)-benzyl]-5-(3-isopropyl-5-methoxy-benzylamino)-1-oxo-tetrahydro-thiopyran-4-ol] |

| SMILES | IC50 |
| --- | --- |
| CC(C)(C)c1cccc(CN[C@H]2CS(=O)(=O)C[C@@H](Cc3cc(F)c(NCCNC4CC4)c(Cl)c3)[C@@H]2O)c1 [Example 17, (3R,4S,5S)-3-(3-tert-Butyl-benzylamino)-5-[3-chloro-4-(2-cyclopropyl-amino-ethylamino)-5-fluoro-benzyl]-1,1-dioxo-hexahydro-1lambda*6*-thiopyran-4-ol hydrochloride] | 1760 nM |
